Results reported in US11415579B2, “Assay for measuring a rate of reaction between a target and a ligand candidate” (Imperial College Innovations Ltd., priority 2016, dated 2022).

Key:
[1] = Kinetic thiol consumption assay with model thiol glutathione; format: physicochemical; parameters: Rate constant with glutathione (k(GSH)): unit not given here; conditions: for Rate constant with glutathione (k(GSH)): 500 μM ligand, 5 μM thiol, phosphate buffer pH 8; for Rate constant with Glutathione: Protein: Glutathione, cysteine position NA, in h-1
In short: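 GSH 5 μM, degassed phosphate buffer pH 8, TCEP beads 2% v/v; acrylamide added; RT, 1 h; fluorescence ex/em 380/470 nm; normalized to DMSO/thiol control; k from first-order exponential decay fit.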

[2] = biological target: T1, human cyclin-dependent kinase 2 (Cdk2) (Homo sapiens, UniProt P24941); assay: Kinetic thiol consumption assay with wild type Cdk2 (C177); format: binding; parameters: key to Rate enhancement, Cdk2 WT: k(Cdk2) divided by k(model thiol); Rate constant with Cdk2 (k(Cdk2)): unit not given here; conditions: for Rate constant with Cdk2 (k(Cdk2)): 500 μM ligand, 5 μM thiol, phosphate buffer pH 8; for Rate enhancement, Cdk2 WT: no additional mutations; for Rate constant with Cdk2 WT: Protein: Cdk2, cysteine position WT, in h^-1; for k(Cdk2)/k(Cdk2_mut) rate enhancement: model thiol Cdk2[C177A, F80C, K278C]; for k(Cdk2)/k(GSH) rate enhancement: model thiol glutathione
T1 construct: poly-histidine; made in house; host or cells: E. coli
In short: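 Rate constants came from first-order exponential decay fits of normalized fluorescence against time, with thiol (5 μM) in degassed pH 8 phosphate buffer containing 2% v/v TCEP beads and reads after 1 h at room temperature.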

Cdk2[C177A, F80C, K278C] = biological target: T2, Cdk2[C177A, F80C, K278C] (Homo sapiens, UniProt P24941, C177A/F80C/K278C); assay: Kinetic thiol consumption assay with mutant Cdk2 as model thiol; format: binding; parameters: unit not given here; conditions: 500 μM ligand, 5 μM thiol, phosphate buffer pH 8
T2 construct: poly-histidine; made in house; host or cells: E. coli
In short: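 First-order rate constants were derived by exponential-decay fitting of DMSO/thiol-normalized fluorescence (380/470 nm) over time at room temperature. Thiol was 5 μM E. coli-expressed His-tagged Cdk2 mutant C177A/F80C/K278C in degassed pH 8 phosphate buffer containing 2% v/v TCEP beads.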

Cdk2(C177A, F80C) = biological target: T3, Cdk2(C177A, F80C) (Homo sapiens, UniProt P24941, C177A/F80C); assay: Kinetic thiol consumption assay with Cdk2 mutant F80C, incl. kobs versus concentration (Kd, k2); format: binding; parameters: key to Rate enhancement, Cdk2 F80C: Cdk2 rate constant divided by model-thiol rate constant; conditions: additional mutation C177A; for Rate constant with Cdk2 F80C: Protein: Cdk2, cysteine position F80C, in h^-1
T3 construct: poly-histidine; made in house; host or cells: E. coli
In short: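 His-tagged Cdk2(C177A/F80C) from E. coli or model thiol, 5 μM in degassed phosphate buffer pH 8 with TCEP beads, reacted with acrylamide ligands; fluorescence (ex/em 380/470 nm) normalized to DMSO control and fitted to first-order decay for kobs. Kd and k2 obtained from hyperbolic fit of kobs versus ligand concentration.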

Cdk2(H71C) (C177A) = biological target: T4, Cdk2(H71C) (C177A) (Homo sapiens, UniProt P24941, C177A/H71C); assay: Kinetic thiol consumption assay with Cdk2 mutant H71C; format: binding; parameters: key to Rate enhancement, Cdk2 H71C: rate constant with Cdk2 ÷ rate constant with model thiol (fold); conditions: additional mutation C177A; for Rate constant with Cdk2 H71C: Protein: Cdk2, cysteine position H71C, in h^-1
T4 construct: poly-histidine; made in house; host or cells: E. coli
In short: (§1)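 Thiol consumption was monitored kinetically using 5 μM Cdk2 (C177A plus one introduced cysteine) in degassed phosphate buffer at pH 8 with TCEP beads. Plates were kept 1 h at room temperature before fluorescence reading, and rate constants came from exponential decay fitting.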

Cdk2(S276C) (C177A) = biological target: T5, Cdk2(S276C) (C177A) (Homo sapiens, UniProt P24941, C177A/S276C); assay: Kinetic thiol consumption assay with Cdk2 mutant S276C; format: binding; parameters: key to Rate enhancement, Cdk2 S276C: rate constant with Cdk2 ÷ rate constant with model thiol (fold); conditions: additional mutation C177A; for Rate constant with Cdk2 S276C: Protein: Cdk2, cysteine position S276C, in h^-1
T5 construct: poly-histidine; made in house; host or cells: E. coli
In short: as §1

Cdk2(N272C) (C177A) = biological target: T6, Cdk2(N272C) (C177A) (Homo sapiens, UniProt P24941, C177A/N272C); assay: Kinetic thiol consumption assay with Cdk2 mutant N272C; format: binding; parameters: key to Rate enhancement, Cdk2 N272: rate constant with Cdk2 ÷ rate constant with model thiol (fold); conditions: for Rate enhancement, Cdk2 N272: Cdk2 N272, additional mutation C177A; for Rate constant with Cdk2 N272C: Protein: Cdk2, cysteine position N272C, additional mutation C177A, in h^-1
T6 construct: poly-histidine; made in house; host or cells: E. coli
In short: as §1

Cdk2(T182C) (C177A) = biological target: T7, Cdk2(T182C) (C177A) (Homo sapiens, UniProt P24941, C177A/T182C); assay: Kinetic thiol consumption assay with Cdk2 mutant T182C; format: binding; parameters: key to Rate enhancement, Cdk2 T182C: rate constant with Cdk2 ÷ rate constant with model thiol (fold); conditions: additional mutation C177A; for Rate constant with Cdk2 T182C: Protein: Cdk2, cysteine position T182C, in h^-1
T7 construct: poly-histidine; made in house; host or cells: E. coli
In short: as §1

Cdk2(R122C) (C177A) = biological target: T8, Cdk2(R122C) (C177A) (Homo sapiens, UniProt P24941, C177A/R122C); assay: Kinetic thiol consumption assay with Cdk2 mutant R122C; format: binding; parameters: key to Rate enhancement, Cdk2 R122C: rate constant with Cdk2 ÷ rate constant with model thiol (fold); conditions: additional mutation C177A; for Rate constant with Cdk2 R122C: Protein: Cdk2, cysteine position R122C, in h-1
T8 construct: poly-histidine; made in house; host or cells: E. coli
In short: as §1

Cdk2(S181C) (C177A) = biological target: T9, Cdk2(S181C) (C177A) (Homo sapiens, UniProt P24941, C177A/S181C); assay: Kinetic thiol consumption assay with Cdk2 mutant S181C; format: binding; parameters: key to Rate enhancement, Cdk2 S181C: rate constant with Cdk2 ÷ rate constant with model thiol (fold); conditions: additional mutation C177A; for Rate constant with Cdk2 S181C: Protein: Cdk2, cysteine position S181C, in h^-1
T9 construct: poly-histidine; made in house; host or cells: E. coli
In short: as §1

Structure (SMILES)	Rate constant with glutathione (k(GSH)) [1]	Rate constant with Glutathione [1]	Rate constant with Cdk2 (k(Cdk2)) [2]	Rate enhancement, Cdk2 WT [2]	Rate constant with Cdk2 WT [2]	k(Cdk2)/k(Cdk2_mut) rate enhancement [2]	k(Cdk2)/k(GSH) rate enhancement [2]	Rate constant with Cdk2[C177A, F80C, K278C] (k(Cdk2_mut)) (Cdk2[C177A, F80C, K278C])	Rate enhancement, Cdk2 F80C (Cdk2(C177A, F80C))	Rate constant with Cdk2 F80C (Cdk2(C177A, F80C))	Rate enhancement, Cdk2 H71C (Cdk2(H71C) (C177A))	Rate enhancement, Cdk2 S276C (Cdk2(S276C) (C177A))	Rate enhancement, Cdk2 N272 (Cdk2(N272C) (C177A))	Rate constant with Cdk2 N272C (Cdk2(N272C) (C177A))	Rate enhancement, Cdk2 T182C (Cdk2(T182C) (C177A))	Rate constant with Cdk2 T182C (Cdk2(T182C) (C177A))	Rate enhancement, Cdk2 R122C (Cdk2(R122C) (C177A))	Rate constant with Cdk2 R122C (Cdk2(R122C) (C177A))	Rate enhancement, Cdk2 S181C (Cdk2(S181C) (C177A))	Rate constant with Cdk2 S181C (Cdk2(S181C) (C177A))	also measured
C=CC(=O)N1CCC2(CCCN(Cc3ccccc3)C2)C1 (stereo not drawn) [CA-141]	0.01384	0.01802	0.00693	0.3847	0.006933	2.693	0.5009	0.00257	0.09517	0.001715	0	0	0.2507	0.004517	0.5125	0.009235	0.2386	0.0043	0.1935	0.003487	
C=CC(=O)Nc1nc2cc3c(cc2s1)OC(F)(F)O3 [CA-142]	0.02031	0.02028	0.03086	1.522	0.03086	1.361	1.519	0.02268	9.635	0.1954	0.1797	3.68	0.3071	0.006229	12.86	0.2609	0.1319	0.002674	0.4029	0.00817	Rate constant with Cdk2 H71C (Cdk2(H71C) (C177A)): 0.003644; Rate constant with Cdk2 S276C (Cdk2(S276C) (C177A)): 0.07463
C=CC(=O)N1CCC2CCC(C1)N2C (stereo not drawn) [CA-143]	0.0293	0.02932	0.01115	0.3803	0.01115	2.207	0.3805	0.00505	0.1014	0.002972	0.08025	0.6344	0.4942	0.01449	2.359	0.06917	0.2049	0.006009	0.9178	0.02691	Rate constant with Cdk2 H71C (Cdk2(H71C) (C177A)): 0.002353; Rate constant with Cdk2 S276C (Cdk2(S276C) (C177A)): 0.0186
C=CC(=O)Nc1nc2ccccc2n1CCc1ccccn1 [CA-144]	0.0414	0.04163	0.04682	1.125	0.04682	3.77	1.131	0.01242	0.4956	0.02063	8.256	1.262	2.14	0.08909	2.327	0.09687	0.9491	0.03951	0.4516	0.0188	Rate constant with Cdk2 H71C (Cdk2(H71C) (C177A)): 0.3437; Rate constant with Cdk2 S276C (Cdk2(S276C) (C177A)): 0.05252
C=CC(=O)N(C(=O)C=C)c1c2ccccc2n2c(C)nc3ccccc3c12 [CA-152]	0.2501	8.003	0.8358	0.4371	3.498	0.2732	3.342	3.059	0.1587	1.27	0	0	0		0		0		0.9118	7.297	
C=CC(=O)Nc1sc2c(c1C(=O)NC1CC1)CCC2 [CA-155]	0.2678	0.2656	0.743	2.797	0.743	0.5342	2.774	1.391	0		1.102	0.6924	0.715	0.1899	2.615	0.6945	1.407	0.3736	0.7715	0.2049	Rate constant with Cdk2 H71C (Cdk2(H71C) (C177A)): 0.2926; Rate constant with Cdk2 S276C (Cdk2(S276C) (C177A)): 0.1839
C=CC(=O)NC1CC2CC1C1CCCC21 (stereo not drawn) [CA-159]	0.00418	0.007067	0.00232	0.5437	0.003842	1.79	0.5547	0.0013	0		0.5333	0.1634	0.2158	0.001525	0.9382	0.00663	0.2488	0.001758	0		Rate constant with Cdk2 H71C (Cdk2(H71C) (C177A)): 0.003769; Rate constant with Cdk2 S276C (Cdk2(S276C) (C177A)): 0.001155
